In patent US20230381173A1, “METHODS AND PHARMACEUTICAL COMPOSITION FOR TREATING DISEASES” (TONGLI BIOMEDICAL CO. LTD., priority 2021, published 2023):

Tests used:
Dactylogyrus vastator = test: Bath treatment of Dactylogyrus infected goldfish; assay type: in vivo, goldfish (Carassius auratus); conditions: bath 1.5 mg/L, 48 hours
Procedure: (R)-praziquantel Form B was tested for use in treating fish parasites. Specifically, the effect of bath treatment of monogenean Dactylogyrus infected goldfish (Carassius auratus) was investigated. […] Two days after treatment, the number of attached parasites in whole gills of each fish was counted. Reduction rate=(average survival of worms in the blank control group−average survival of worms in the administration group)/average survival of worms in the blank control group×100%.

Neobenedenia melleni = test: Antiparasitic activity of medicated feed in infected yellow croaker; assay type: in vivo, large yellow croaker (Larimichthys crocea); conditions: for Infectivity: Day 3
Source text: The purpose of this experiment was to evaluate palatability and efficacy of (R)-praziquantel Form B (R-PZQ) against Monogenean trematode infection (Neobenedenia melleni) in large yellow croaker (Larimichthys crocea). Praziquantel (PZQ) was used as a positive control.
All experimental yellow croakers (about 50-75 g BW/fish) were infected with Neobenedenia melleni, and the average infection intensity was 100-120 parasites/fish.
Fish were fed 2 times a day (morning and afternoon) at up to 4% BW per day. The medicated granular feed was prepared as descripted under section “LIQUID COMPOSITIONS AND SOLID FORMULATIONS CONTAINING (R)-PRAZIQUANTEL FORM B FOR AQUACULTURE AND FISH”. Briefly, the powders of (R)-praziquantel Form B ([…]) or praziquantel (PZQ) were mixed with 4% (v/v) squid oil. The resulting squid oil was subsequently top-dressed onto commercial feed granules. Control feed was prepared by top-dressing with 4% squid oil onto the feed granules without containing the compounds.
During treatment, amount and time to consume the medicated (or control) feed by the fishes in each group were observed and scored for palatability as poor (+) to excellent (+++++). Two days after dosing (Day 3), each fish was soaked in water individually and the number of parasites was recorded separately.

[1] = Long-term stability of (R)-praziquantel Form B API; assay type: physicochemical; conditions: for Appearance / Assay(Anhydrous basis) / Chiral Purity / Purity / Related Substances, largest single impurity (RRT = 0.60) / Related Substances, total impurities / XRPD Characterization / Water Content: 25° C., 60% relative humidity; for Water Content: Karl Fischer
Procedure: Accurately weigh about 0.1-0.5 g of sample of Form B and transfer it to KF titrator container (aldehyde ketone Volumetric method), measure the samples according to USP<921>. The active pharmaceutical ingredient (API) of Form B was stored for 18 months under different storage conditions: 25° C. and 60% relative humidity, 30° C. and 65% relative humidity, and 40° C. and 75% relative humidity, in a sealed and open condition. […] In some embodiments, under various storage conditions the anhydrous API provided herein can be stable and water content controlled under 0.5% and monitored by KF for at least, or at least about, 3 months, 6 months, 9 months, 12 months, 18 months, 24 months and 36 months. For example, under storage conditions of 25° C. and 60% relative humidity, the tablets and API provided herein can be stable for at least, or at least about, 3 months, 6 months, 9 months, 12 months and 18 months.

[2] = Accelerated solid state stability of anhydrate (Form B) and hemihydrate (R)-praziquantel, open and closed condition; assay type: physicochemical
Procedure: The Accelerated Solid State Stability of the Anhydrate (Form B) and Hemihydrate (R)-Praziquantel in an Open and Closed Condition […] The accelerated solid-state stability of the anhydrate and hemihydrate (R)-praziquantel was determined by storing approximately 1.0 g of the material in a glass dish at a) the anhydrate at 45° C./75% (RH), closed, for 3 months. and b) 45° C./75% Relative Humidity (RH), open exposure condition, for 3 months. The material was assayed by KF, TGA and HPLC for final content and degradation products.

[3] = Physicochemical characterization of Form B (hygroscopicity)
[4] = highest concentration of 10 mg/L
Procedure: Goldfish were acclimatized to 22° C. water (pH 7˜7.5, dissolved oxygen>5 mL/L) and were challenged with Dactylogyrus vastator. When infection rate and infection intensity reached 100% and over 10 parasite/whole gills of each fish within about 10 days, the fish were then treated with various concentrations of the (R)-praziquantel Form B or praziquantel for 48 hours by bath. Infected fish […] were used as a control group. 20 infected fish were placed per concentration for each treatment.

[5] = at the same dose level; cited from earlier work
[6] = cited from earlier work
isolated rat atria = conditions: cited from earlier work
[7] = rabbit, in vivo; cited from earlier work
[8] = medicated feed 75 mg/kg × 2 days
[9] = Closed condition, 45° C./75% RH, 3 months
[10] = Open, 45° C., RH75%, T3 (3 months)
[11] = Opened condition, 45° C./75% RH, 3 months
[12] = Sealed, 45° C., RH75%, T3 (3 months)
[13] = medicated feed 37 mg/kg × 2 days

O=C(C1CCCCC1)N1CC(=O)N2CCc3ccccc3C2C1 (racemic) [Praziquantel, reference compound]
Infection rate (Dactylogyrus vastator): 100% | Worm reduction (Dactylogyrus vastator): 45% | Mortality (Neobenedenia melleni; [8]): 3% | Infectivity (Neobenedenia melleni; [8]): 54%

O=C(C1CCCCC1)N1CC(=O)N2CCc3ccccc3[C@@H]2C1 [(R)-praziquantel Form B, (R)-2-(cyclohexanecarbonyl)-2,3,6,7-tetrahydro-1H-pyrazino[2,1-a] isoquinolin-4(11bH)-one]
Storage stability of API ([1]; 18 months, 25° C./60% RH, 30° C./65% RH, 40° C./75% RH, sealed and open): good stability | Appearance ([1]; 18 M): White solid | Assay(Anhydrous basis) ([1]; 18 M): 101.00% | Chiral Purity ([1]; 18 M): 100.00% | Purity ([1]; 18 M): 99.90% | Related Substances, largest single impurity (RRT = 0.60) ([1]; 18 M): RRT = 0.60: 0.03% | Related Substances, total impurities ([1]; 18 M): 0.11% | XRPD Characterization ([1]; 18 M): Conforms | Appearance ([1]; Initial (0 M)): White solid | Assay(Anhydrous basis) ([1]; Initial (0 M)): 99.80% | Chiral Purity ([1]; Initial (0 M)): 100.00% | Purity ([1]; Initial (0 M)): 99.90% | Related Substances, largest single impurity (RRT = 0.60) ([1]; Initial (0 M)): RRT = 0.60: 0.04% | Related Substances, total impurities ([1]; Initial (0 M)): 0.10% | XRPD Characterization ([1]; Initial (0 M)): Conforms | Water Content ([1]; 18 M): 0.27% | Water Content ([1]; Initial (0 M)): 0.50% | Degradation (HPLC) [2, 9]: no significant degradation observed | Water uptake (KF) [2, 9]: ≤ 0.3% | Water content (KF) ([2]; Open, 45° C., RH75%, T0, listed as Anhydrate): 1.30% | Water content (KF) ([2]; Open, 45° C., RH75%, T0, listed as anhydrate): 1.3% | Impurities by HPLC, RRT 0.6 [2, 10]: RRT 0.6: 0.04% | Water content (KF) ([2]; Open, 45° C., RH75%, T3 (3 months), listed as Anhydrate): 2.50% | Water content (KF) ([2]; Open, 45° C., RH75%, T3 (3 months), listed as anhydrate): about 2.5% | Degradation (HPLC) [2, 11]: no significant degradation observed | Impurity peaks found (HPLC) [2, 11]: none of impurity peak found | Water content (KF) ([2]; Sealed, 45° C., RH75%, T0): 0.24% | Impurities by HPLC, RRT 0.6 [2, 12]: RRT 0.6: 0.04% | Water content (KF) [2, 12]: 0.32% | Hygroscopicity [3]: slightly hygroscopic | Infection rate (Dactylogyrus vastator): 100% | Worm reduction (Dactylogyrus vastator): 98% | Toxic effect in the treated fish [4]: no toxic effect | Mortality (Neobenedenia melleni; [13]): 0% | Infectivity (Neobenedenia melleni; [13]): 35% | Mortality (Neobenedenia melleni; [8]): 0% | Infectivity (Neobenedenia melleni; [8]): 6% | Antiparasitic efficacy (Neobenedenia melleni; oral treatment): dose dependent and superior to PZQ

O=C(C1CCCCC1)N1CC(=O)N2CCc3ccccc3[C@@H]2C1 [(R)-praziquantel]
Anthelmintic efficacy [5]: better than that of praziquantel | Observed side effects ([6]; after oral administration (drowsiness, gastric nausea or photosensitivity rash)): relatively mild | Serious adverse reactions ([6]; after oral administration): No serious adverse reactions | Cardiac toxicity (isolated rat atria): lower cardiac toxicity than (S)-praziquantel | Cardiac toxicity [7]: lower cardiac toxicity than (S)-praziquantel

O=C(C1CCCCC1)N1CC(=O)N2CCc3ccccc3[C@H]2C1 [(S)-praziquantel, reference compound]
Anthelmintic efficacy [5]: almost no activity

O.O=C(C1CCCCC1)N1CC(=O)N2CCc3ccccc3[C@@H]2C1.O=C(C1CCCCC1)N1CC(=O)N2CCc3ccccc3[C@@H]2C1 [Hemihydrate, reference compound]
Water content (KF) ([2]; Open, 45° C., RH75%, T0): 2.80% | Impurities by HPLC, RRT 0.6 [2, 10]: RRT0.6: 0.17%, | Impurities by HPLC, RRT 0.9 [2, 10]: RRT0.9: 0.13% | Water content (KF) [2, 10]: 2.50% | Impurity peaks found (HPLC) [2, 11]: two | Percent total impurities [2, 11]: exceed 0.3%
